Measurements from patent US7138421B2, “Anti-androgenic pyrrolidines with tumor-inhibiting action” (Schring Aktiengesellschaft, priority 2003, dated 2006).
Read-outs that look alike come from different tables or passages of the source.

Assays:
LNCaP cells = assay: Inhibition of the proliferation of LNCaP cells (crystal violet assay); assay type: cell-based, human; details: for inhibition at 1 µM: read-out: % Inhibition at 1 μM, 1 μM test substance, compared to cell growth in the presence of 0.1 nmol of R1881; for IC50: 7 to 8 days
Procedure: For the proliferation assay, 6000 LNCaP cells/well (Horoszewicz et al. Cancer Res. 1983, 43, 1809–1817) in a microtiter plate (96-well) in 50 μl of RPMI1640 medium are grown with 5% CCS and cultivated as in Model 1. After 24 hours, the cells receive 50 μl of 2×-concentrated test substance, diluted in culture medium. The solvent concentration is 0.5% DMSO. After 4 days, the cells receive another 100 μl of 1×-concentrated test substance, diluted in culture medium. After 7 to 8 days, the proliferation rate of the cells is determined by means of crystal violet assay (Gillies et al. Anal. Biochem. 1986, 159, 109–113). To determine the antagonism, the substance treatment is performed in the presence of […] of R1881 (1:1000 dilution of ethanolic solution). Control cells receive only 0.5% DMSO. For the agonism, the cells are treated only with test substance (without R1881).

androgen receptor = molecular target: T1, androgen receptor (Homo sapiens, UniProt P10275, T878A); assay type: cell-based; details: LNCaP cells, 48 h, 10 μM, % of DMSO control
T1 construct: Destabilization of AR in LNCaP Cells by Test Substances; endogenous in cells; host or cells: LNCaP (human prostate cell line)
T1 sequence (P10275 1-920 T878A): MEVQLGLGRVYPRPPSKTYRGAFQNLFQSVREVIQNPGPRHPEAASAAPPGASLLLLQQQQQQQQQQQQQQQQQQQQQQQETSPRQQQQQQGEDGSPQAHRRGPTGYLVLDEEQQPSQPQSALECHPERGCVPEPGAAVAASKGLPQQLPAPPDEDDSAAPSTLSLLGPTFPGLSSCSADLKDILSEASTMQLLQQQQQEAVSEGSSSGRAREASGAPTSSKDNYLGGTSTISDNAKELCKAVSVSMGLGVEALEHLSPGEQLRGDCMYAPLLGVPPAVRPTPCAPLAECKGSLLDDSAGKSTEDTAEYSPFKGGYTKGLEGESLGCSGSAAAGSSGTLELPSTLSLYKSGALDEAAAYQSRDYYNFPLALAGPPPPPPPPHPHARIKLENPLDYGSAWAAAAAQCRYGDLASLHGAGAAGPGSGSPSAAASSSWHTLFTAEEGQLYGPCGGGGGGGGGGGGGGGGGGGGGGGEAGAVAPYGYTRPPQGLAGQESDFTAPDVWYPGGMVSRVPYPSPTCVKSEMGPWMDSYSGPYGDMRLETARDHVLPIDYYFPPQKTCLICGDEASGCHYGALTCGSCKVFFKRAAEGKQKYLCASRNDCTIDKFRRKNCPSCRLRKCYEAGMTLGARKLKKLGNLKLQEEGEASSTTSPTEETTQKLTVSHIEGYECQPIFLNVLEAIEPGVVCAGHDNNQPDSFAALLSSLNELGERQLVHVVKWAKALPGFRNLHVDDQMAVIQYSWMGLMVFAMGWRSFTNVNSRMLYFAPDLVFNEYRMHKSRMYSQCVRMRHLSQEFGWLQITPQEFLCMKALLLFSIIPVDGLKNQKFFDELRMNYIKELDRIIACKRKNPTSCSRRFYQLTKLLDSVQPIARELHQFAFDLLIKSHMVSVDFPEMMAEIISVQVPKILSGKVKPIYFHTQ

[1] = Pharmacokinetics in rats after intravenous and peroral administration; assay type: in vivo; details: rat, serum; for Vd / clearance: intravenous; for Vd: read-out: Distribution Volume Vdss; for clearance: read-out: Systemic Serum Clearance CL; for Tmax: read-out: Absorption Tmax
Text: Model 4: Pharmacokinetics in Rats After Intravenous and Peroral Administration
The pharmacokinetic properties of the compounds according to the invention were studied in Examples 1: 4-[4,4-dimethyl-5-oxo-3-[8-(pyrrolidin-1-yl)octyl]-2-thioxoimidazolidin-1-yl]-2-(trifluoromethyl)benzonitrile and 11: 4-[3-[8-[(2S)-2-(hydroxymethyl)pyrrolidin-1-yl]octyl]-4,4-dimethyl-5-oxo-2-thioxoimidazolidin-1-yl]-2-(trifluoromethyl)benzonitrile.

seminal vesicles = assay: Anti-androgenic action on testosterone-stimulated growth of the seminal vesicles of castrated mice; assay type: in vivo, mouse; details: 1× daily, 7 days, castrated mice with testosterone propionate
Procedure: The function and the size of accessory reproductive glands (prostate and seminal vesicles) depend on androgens. In castrated animals, a growth of these organs is induced by the administration of androgen. Simultaneous treatment with anti-androgens inhibits this growth in a dose-dependent manner. For the examination of test substances, the mice were castrated. On the same day, treatment with testosterone propionate (0.03 mg/mouse) and the test substances (1× daily 10 or 30 mg/kg p.o. in benzyl benzoate-castor oil or ethanol/peanut oil (10:90)) was formulated. The treatment was carried out over 7 days and at the end of the test, the weights of the seminal vesicles and prostate were determined. The inhibition of the seminal vesicle growth, in percent, was calculated in reference to the control groups (with and without testosterone). As a reference substance, cyproterone acetate (30 mg/kg s.c. and p.o.) was used.

[2] = Homo sapiens, LNCaP, read-out: IC50 inhibition of the proliferation of LNCaP cells, in the presence of 0.1 nmol of R1881
[3] = iv, read-out: Half-Life i.v. T1/2 (converted)
[4] = po, read-out: Half-Life p.o. T1/2 (converted)

Q: What does the source list for `CC1(C)C(=O)N(c2ccc(C#N)c(C(F)(F)F)c2)C(=S)N1CCCCCCCCN1CCCC1` [Example 1, 4-[4,4-Dimethyl-5-oxo-3-[8-(pyrrolidin-1-yl)octyl]-2-thioxoimidazolidin-1-yl]-2-(trifluoromethyl)benzonitrile]?
A: inhibition at 1 µM (LNCaP cells; Homo sapiens, LNCaP): 98%; IC50 (LNCaP cells; [2]): 45 nM; AR Content at 10 μM (androgen receptor): 63%; Vd [1]: 37 L/kg; clearance [1]: 76 mL/min/kg; half-life [1, 3]: 5.6 h; bioavailability ([1]; po): 72%; Tmax ([1]; po): 5 h; half-life [1, 4]: 6.1 h; % Inhibition of MSB Growth (seminal vesicles; 10 mg/kg p.o.): 82%; % Inhibition of MSB Growth (seminal vesicles; 30 mg/kg p.o.): 99%

Q: What does the source list for `CC1(C)C(=O)N(c2ccc(C#N)c(C(F)(F)F)c2)C(=S)N1CCCCCCCCN1CCCC1.Cl` [Example 2, 4-[4,4-Dimethyl-5-oxo-3-[8-(pyrrolidin-1-yl)octyl]-2-thioxoimidazolidin-1-yl]-2-(trifluoromethyl)benzonitrile hydrochloride]?
A: % Inhibition at 1 μM (LNCaP cells; 1 μM test substance, compared to cell growth in the presence of 0.1 nmol of R1881): 100%; IC50 (LNCaP cells; read-out: IC50 inhibition of the proliferation of LNCaP cells, in the presence of 0.1 nmol of R1881, hydrochloride): 41 nM; AR Content at 10 μM (androgen receptor): 50%; % Inhibition of MSB Growth (seminal vesicles; 30 mg/kg p.o.): 95%

Q: Which results are given for `CC1(C)C(=O)N(c2ccc(C#N)c(C(F)(F)F)c2)C(=S)N1CCCCCCCCN1CCC[C@@H]1CO` [Example 10, 4-[3-[8-[(2R)-2-(Hydroxymethyl)pyrrolidin-1-yl]octyl]-4,4-dimethyl-5-oxo-2-thioxoimidazolidin-1-yl]-2-(trifluoromethyl)benzonitrile]?
A: inhibition at 1 µM (LNCaP cells; Homo sapiens, LNCaP): 101%; IC50 (LNCaP cells; [2]): < 10 nM; % Inhibition of MSB Growth (seminal vesicles; 10 mg/kg p.o.): 87%

Q: With `CC1(C)C(=O)N(c2ccc(C#N)c(C(F)(F)F)c2)C(=S)N1CCCCCCCCN1CCC[C@H]1CO` [Example 11, 4-[3-[8-[(2S)-2-(Hydroxymethyl)pyrrolidin-1-yl]octyl]-4,4-dimethyl-5-oxo-2-thioxoimidazolidin-1-yl]-2-(trifluoromethyl)benzonitrile] as the compound, how does the inhibition at 1 µM (LNCaP cells; Homo sapiens, LNCaP) read?
A: Its inhibition at 1 µM is 102%.

Q: What about the IC50 (LNCaP cells; [2]) of the same compound?
A: Its IC50 is 13 nM.

Q: What about the “AR Content at 10 μM” value (androgen receptor) of the same compound?
A: The value was 50%.

Q: And the Vd [1]?
A: Its Vd is 11 L/kg.

Q: What about the clearance [1] of the same compound?
A: Its clearance is 20 mL/min/kg.

Q: And the half-life [1, 3]?
A: The half-life was 5.7 h.

Q: And the bioavailability ([1]; po)?
A: The bioavailability was 65%.

Q: And the Tmax ([1]; po)?
A: The Tmax was 7 h.

Q: What about the half-life [1, 4] of the same compound?
A: The half-life was 8 h.

Q: What about the “% Inhibition of MSB Growth” value (seminal vesicles; 30 mg/kg p.o.) of the same compound?
A: Its value is 95%.
